Values after ≈ are worked out from the molar mass of the structure shown.

Series [1] in a line: Phosphate-buffered saline (PBS) solubility of compounds. The class given is physicochemical. The following applies: aqueous buffer, thermodynamic from solid, PBS pH 7.5, 0.5 mg/mL, vortexed 90 min, filtered, LC-MS/MS, read-out: Solubility Range. The procedure:
PBS solutions (pH 7.5) were prepared according to the following compositions and stored at 4° C. Test compounds were dissolved in PBS (pH 7.5) at 0.5 mg/mL and vortexed for 90 min. The PBS solution was sequentially filtered through a 0.45, 1.2, […] syringe filter. Concentration of test compounds were determined using LC-MS/MS with appropriate dilution of the samples.

In series [2] the target is T1, human wild type-CFTR (Homo sapiens, UniProt P13569). The series can be described thus: Short-circuit current measurement. The class given is cell-based. The arrangement: expressed in transfected cells. Conditions: FRT cells expressing human wild type-CFTR; Forskolin 20 μM signal used as 100% activity; read-out: Short-circuit current measurement (EC50) Concentration range. An excerpt: Forskolin (Tocris cat. #1099), CFTRinh-172 (Tocris cat. #3430), amphotericin B (Tocris cat. #6930), dimethyl sulfoxide (Sigma cat. #D4540), EVC4000 Multi-Channel V/I Clamp (World Precision Instruments, Sarasota, FL), PowerLab 4/35 (AD Instruments, Castle Hill, Australia), Labchart Pro 7, GraphPad Prism 5 (GraphPad Software, Inc.). Fisher rat thyroid (FRT) cells expressing human wild type-CFTR were provided by Dr. Alan Verkman (University of California, San Francisco) and grown in DMEM/F12 medium (1:1) supplemented with 10% FBS, 2 mM glutamine, 100 units/ml penicillin and 100 μg/ml streptomycin. Snapwell inserts containing CF TR-expressing FRT cells were mounted in Ussing chambers (Physiologic Instruments, San Diego, CA). […] Forskolin, test compounds, and CFTRinh-172 were added to the apical and basolateral bath solution. Apical membrane current and short-circuit current were measured with an EVC4000 Multi-Channel V/I Clamp (World Precision Instruments, Sarasota, FL) and recorded using PowerLab 4/35 (AD Instruments, Castle Hill, Australia). Data were collected and analyzed with ADInstruments acquisition software Labchart Pro 7 software. The sampling rate was 4 Hz.
T1 sequence (P13569 whole entry): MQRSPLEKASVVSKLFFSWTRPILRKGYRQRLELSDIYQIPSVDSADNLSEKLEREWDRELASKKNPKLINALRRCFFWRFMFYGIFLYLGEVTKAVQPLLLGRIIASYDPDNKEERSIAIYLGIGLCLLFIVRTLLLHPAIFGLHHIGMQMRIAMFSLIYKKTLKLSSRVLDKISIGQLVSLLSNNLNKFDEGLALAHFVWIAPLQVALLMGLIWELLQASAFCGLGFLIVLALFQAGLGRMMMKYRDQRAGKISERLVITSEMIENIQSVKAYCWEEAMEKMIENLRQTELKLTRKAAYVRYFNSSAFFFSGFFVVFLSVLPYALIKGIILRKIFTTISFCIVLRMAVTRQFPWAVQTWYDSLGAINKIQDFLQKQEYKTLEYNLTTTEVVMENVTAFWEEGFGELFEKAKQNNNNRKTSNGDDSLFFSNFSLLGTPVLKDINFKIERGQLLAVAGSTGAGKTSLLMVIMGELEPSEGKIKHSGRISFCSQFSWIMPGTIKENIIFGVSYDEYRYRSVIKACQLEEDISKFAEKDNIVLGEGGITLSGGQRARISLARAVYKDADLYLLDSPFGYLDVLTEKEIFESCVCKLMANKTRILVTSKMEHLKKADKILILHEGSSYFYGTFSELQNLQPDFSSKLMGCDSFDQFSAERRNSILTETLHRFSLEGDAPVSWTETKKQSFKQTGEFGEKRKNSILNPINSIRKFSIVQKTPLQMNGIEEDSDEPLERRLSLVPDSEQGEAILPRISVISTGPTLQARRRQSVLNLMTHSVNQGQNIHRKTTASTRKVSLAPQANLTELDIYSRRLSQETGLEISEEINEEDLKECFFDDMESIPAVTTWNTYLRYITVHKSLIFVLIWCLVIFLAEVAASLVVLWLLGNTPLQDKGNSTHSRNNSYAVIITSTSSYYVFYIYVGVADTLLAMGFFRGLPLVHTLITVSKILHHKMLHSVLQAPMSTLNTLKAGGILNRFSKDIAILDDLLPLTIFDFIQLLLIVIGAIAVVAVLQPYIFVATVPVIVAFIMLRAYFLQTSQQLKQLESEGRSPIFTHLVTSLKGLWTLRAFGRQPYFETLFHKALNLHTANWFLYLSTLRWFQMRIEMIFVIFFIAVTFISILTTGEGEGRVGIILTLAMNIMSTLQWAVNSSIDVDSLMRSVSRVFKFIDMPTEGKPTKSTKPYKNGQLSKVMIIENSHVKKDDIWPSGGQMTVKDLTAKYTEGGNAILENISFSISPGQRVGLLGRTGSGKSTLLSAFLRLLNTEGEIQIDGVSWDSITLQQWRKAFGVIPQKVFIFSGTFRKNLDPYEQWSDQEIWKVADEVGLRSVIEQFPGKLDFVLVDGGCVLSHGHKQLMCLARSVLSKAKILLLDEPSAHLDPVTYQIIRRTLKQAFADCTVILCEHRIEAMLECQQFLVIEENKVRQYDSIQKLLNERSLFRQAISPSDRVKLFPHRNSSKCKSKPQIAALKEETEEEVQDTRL

Series [3] deals with T1, human wild type-CFTR. The series can be described thus: Cell-based YFP assay. The arrangement: expressed in transfected cells; host or cells: CHO-K1 (Chinese hamster ovary). Conditions: CHO-K1 cells expressing human wild type-CFTR and YFP-H148Q/I152L; forskolin 20 μM = 100% activity; read-out: Cell-based YFP Assay (EC50) Concentration Range. In short, it runs like this:
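CHO-K1 cells co-expressing human wild-type CFTR and YFP-H148Q/I152L halide sensor, grown 48 h at 37 °C, then in PBS. YFP quenching by I⁻ influx read at 37 °C after adding 140 mM I⁻ solution, sampled every 0.4 s for 14 s. Triplicates averaged; EC50 fitted.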

A further series has as its system C57BL/6 female mice. Put plainly: Scopolamine induced tear volume reduction model. The class given is in vivo, mouse. The following applies: scopolamine-injected mice, ophthalmic solution topically on both eyes 3 times a day, phenol red thread; average if evaluated twice. On the procedure:
Seven-week old C57BL/6 female mice were used.
Scopolamine hydrobromide was purchased from Sigma Aldrich (Cat No. S0929), dissolved in saline, and sterilized prior to use.
Zone-Quick phenol red thread was obtained from Menicon.
The test compounds used in this experiment were dissolved in PBS containing 1% of surfactant.
Scopolamine (0.2 ml of 2.5 mg/mL solution) was injected subcutaneously 3 times a day to induce a decrease in the tear volume in the mouse. At the same time, the ophthalmic solution of test compounds or vehicle were topically administered onto both eyes 3 times a day. Tear volume was measured by phenol red thread before dosing (basal level) and 1 hour after the last administration of scopolamine and ophthalmic solution. The results were obtained by measuring the length of the phenol red thread turning red by tears. The schedule of study is expressed as FIG. 1.
If the test compound was evaluated twice, the average value was used.

Regarding `COc1ccc(-c2ccnc3cc(C(=O)N4CCN(C(=O)c5c(F)c(F)c(F)c(F)c5F)[C@@H](C)C4)nn23)cc1OC` [Compound 259, (S)-(7-(3,4-dimethoxyphenyl)pyrazolo[1,5-a]pyrimidin-2-yl) (3-methyl-4-(perfluorobenzoyl)piperazin-1-yl)methanone], in series [1], the solubility at 90 min was 0.1 to 10 µg/mL (≈ 0.174 to 17.4 µM). In addition, the EC50 at human wild type-CFTR [2] and at human wild type-CFTR [3] was 200 to 2000 nM throughout. Besides, the “Ratio of tear volume (test compound to vehicle)” value (“Ratio of tear volume” for short) with C57BL/6 female mice is reported as 0.94.
With `COC(=O)c1ccc(NC(=O)c2cc3nccc(-c4ccc(OC)c(OC)c4)n3n2)cc1Cl` [Compound 140, methyl 2-chloro-4-(7-(3,4-dimethoxyphenyl)pyrazolo[1,5-a]pyrimidine-2-carboxamido)benzoate], the solubility at 90 min in series [1] was under 0.1 µg/mL. For the same compound, the EC50 at human wild type-CFTR [2] and on human wild type-CFTR [3] was under 200 nM in each case. For the same compound, the “Ratio of tear volume” value in the series on C57BL/6 female mice is 1.48.
With `COc1ccc(-c2ccnc3cc(C(=O)N[C@H]4CC[C@H](O)CC4)nn23)cc1OC` [Compound 69, 7-(3,4-dimethoxyphenyl)-N-((1R,4R)-4-hydroxycyclohexyl)pyrazolo [1,5-a]pyrimidine-2-carboxamide], in series [1], the solubility at 90 min was over 10 µg/mL. For the same compound, the EC50 at human wild type-CFTR [2] was at least 2000 nM; at human wild type-CFTR [3], 200 to 2000 nM. Besides, in the series on C57BL/6 female mice, the “Ratio of tear volume” value is 0.76.
`COc1ccc(-c2ccnc3cc(C(=O)N[C@H]4CC[C@@H](C(=O)N5CCOCC5)CC4)nn23)cc1OC` [Compound 72, 7-(3,4-dimethoxyphenyl)-N-((1S,4S)-4-(morpholine-4-carbonyl)cyclohexyl) pyrazolo[1,5-a]pyrimidine-2-carboxamide]: the solubility at 90 min in series [1] was over 10 µg/mL. The EC50 at human wild type-CFTR [2] is at least 2000 nM; at human wild type-CFTR [3], 200 to 2000 nM. Besides, in the series with C57BL/6 female mice, the “Ratio of tear volume” value was 1.06.
As to `COc1ccc(-c2ccnc3cc(C(=O)N4CCN(Cc5c(F)cccc5F)CC4)nn23)cc1OC` [Compound 212, (4-(2,6-difluorobenzyl)piperazin-1-yl)(7-(3,4-dimethoxyphenyl)pyrazolo [1,5-a]pyrimidin-2-yl)methanone], in series [1], the solubility at 90 min lay in the range of 0.1 to 10 µg/mL (≈ 0.203 to 20.3 µM). The results for the EC50 on human wild type-CFTR [2] and on human wild type-CFTR [3] were at least 2000 nM and under 200 nM, respectively. Besides, the “Ratio of tear volume” value in the series with C57BL/6 female mice is recorded as 1.43.
`COc1ccc(-c2ccnc3cc(C(=O)NC4CCCCC4)nn23)cc1OC` [Compound 2, N-cyclohexyl-7-(3,4-dimethoxyphenyl)pyrazolo[1,5-a]pyrimidine-2-carboxamide]: in series [1], the solubility at 90 min is under 0.1 µg/mL. Also, the EC50 at human wild type-CFTR [2] is 200 to 2000 nM; at human wild type-CFTR [3] it was under 200 nM. Besides, in the series with C57BL/6 female mice, the “Ratio of tear volume” value is given as 1.40.
Consider `COc1ccc(-c2ccnc3cc(C(=O)Nc4ccc(N5CC=CCC5)cc4)nn23)cc1OC` [Compound 273, N-(4-(3,6-dihydropyridin-1(2H)-yl)phenyl)-7 (3,4-dimethoxyphenyl) pyrazolo[1,5-a]pyrimidine-2-carboxamide], for which the solubility at 90 min in series [1] is under 0.1 µg/mL. Besides, at human wild type-CFTR [3], the EC50 was under 200 nM. Besides, the “Ratio of tear volume” value in the series with C57BL/6 female mice stood at 0.80.
As to `COc1ccc(-c2ccnc3cc(C(=O)Nc4ccc(N(C)C)cc4)nn23)cc1OC` [Compound 276, 7-(3,4-dimethoxyphenyl)-N-(4-(dimethylamino)phenyl)pyrazolo[1,5-a]pyrimidine-2-carboxamide], the solubility at 90 min in series [1] was under 0.1 µg/mL. Moreover, the EC50 at human wild type-CFTR [3] is under 200 nM. Besides, the “Ratio of tear volume” value in the series with C57BL/6 female mice stood at 1.21.
As to `COc1ccc(-c2ccnc3cc(C(=O)Nc4ccc(C(=O)OCCCN5CCOCC5)cn4)nn23)cc1OC` [Compound 142, 3-morpholinopropyl 6-(7-(3,4-dimethoxyphenyl)pyrazolo [1,5-a]pyrimidine-2-carboxamido)nicotinate], the solubility at 90 min in series [1] is under 0.1 µg/mL. For the same compound, the EC50 on human wild type-CFTR [2] and at human wild type-CFTR [3] was under 200 nM each time.
On to `COc1ccc(-c2ccnc3cc(C(=O)Nc4ccc(C(=O)N5CCOCC5)cc4C)nn23)cc1OC` [Compound 127, 7-(3,4-dimethoxyphenyl)-N-(2-methyl-4-(morpholine-4-carbonyl)phenyl)pyrazolo[1,5-a] pyrimidine-2-carboxamide], for which, in series [1], the solubility at 90 min was under 0.1 µg/mL. For the same compound, the EC50 at human wild type-CFTR [2] and at human wild type-CFTR [3] was 200 to 2000 nM in each case.
For the compound `CCOC(=O)CNC(=O)c1ccc(NC(=O)c2cc3nccc(-c4ccc(OC)c(OC)c4)n3n2)cc1` [Compound 28, ethyl (4-(7-(3,4-dimethoxyphenyl)pyrazolo [1,5-a]pyrimidine-2-carboxamido)benzoyl)glycinate], the solubility at 90 min in series [1] is under 0.1 µg/mL. The EC50 on human wild type-CFTR [2] and at human wild type-CFTR [3] was under 200 nM throughout.
Consider `COc1ccc(-c2ccnc3cc(C(=O)Nc4ccc(N5CCN(C(=O)OC(C)(C)C)CC5)cn4)nn23)cc1OC` [Compound 272, tert-butyl 4-(6-(7-(3,4-dimethoxyphenyl)pyrazolo [1,5-a]pyrimidine-2-carboxamido)pyridin-3-yl)piperazine-1-carboxylate], for which the solubility at 90 min in series [1] was under 0.1 µg/mL. For the same compound, the EC50 at human wild type-CFTR [3] was under 200 nM. Also, in the series with C57BL/6 female mice, the “Ratio of tear volume” value was 1.14.
Turning to `COc1ccc(-c2ccnc3cc(C(=O)Nc4ccc(C(=O)O)cc4Cl)nn23)cc1OC` [Compound 106, 3-chloro-4-(7-(3,4-dimethoxyphenyl)pyrazolo [1,5-a]pyrimidine-2-carboxamido)benzoic acid], the solubility at 90 min in series [1] is under 0.1 µg/mL. Besides, the EC50 at human wild type-CFTR [2] is at least 2000 nM; at human wild type-CFTR [3], under 200 nM.
Take `COc1ccc(-c2ccnc3cc(C(=O)N[C@H]4CC[C@H](C(=O)OCCCN5CCOCC5)CC4)nn23)cc1OC` [Compound 197, 3-morpholinopropyl (1r,4r)-4-(7-(3,4-dimethoxyphenyl)pyrazolo [1,5-a]pyrimidine-2-carboxamido)cyclohexane-1-carboxylate]: the EC50 at human wild type-CFTR [2] and on human wild type-CFTR [3] was 200 to 2000 nM in each case. In the series on C57BL/6 female mice, the “Ratio of tear volume” value is 1.18.
Take `COC(=O)c1ccc(NC(=O)c2cc3nccc(-c4ccc(OC)c(OC)c4)n3n2)nc1` [Compound 31, methyl 6-(7-(3,4-dimethoxyphenyl)pyrazolo [1,5-a]pyrimidine-2-carboxamido)nicotinate]: in series [1], the solubility at 90 min was under 0.1 µg/mL. Besides, the EC50 on human wild type-CFTR [2] and at human wild type-CFTR [3] was under 200 nM each time.
In the case of `COc1ccc(-c2ccnc3cc(C(=O)Nc4ccc(N5CCCC5)cc4)nn23)cc1OC` [Compound 277, 7-(3,4-dimethoxyphenyl)-N-(4-(pyrrolidin-1-yl)phenyl)pyrazolo[1,5-a] pyrimidine-2-carboxamide], the solubility at 90 min in series [1] was under 0.1 µg/mL. In addition, the EC50 on human wild type-CFTR [2] and at human wild type-CFTR [3] was under 200 nM in each case.
In the case of `COC(=O)c1ccc2c(c1)N(C(=O)c1cc3nccc(-c4ccc(OC)c(OC)c4)n3n1)CC2` [Compound 132, methyl 1-(7-(3,4-dimethoxyphenyl)pyrazolo [1,5-a]pyrimidine-2-carbonyl)indoline-6-carboxylate], the solubility at 90 min in series [1] was under 0.1 µg/mL. Moreover, the results for the EC50 on human wild type-CFTR [2] and at human wild type-CFTR [3] were 200 to 2000 nM and under 200 nM, respectively.
For `COc1ccc(-c2ccnc3cc(C(=O)Nc4ccc(NC(=O)OC(C)(C)C)cc4)nn23)cc1OC` [Compound 256, tert-butyl (4-(7-(3,4-dimethoxyphenyl)pyrazolo [1,5-a]pyrimidine-2-carboxamido)phenyl) carbamate], the solubility at 90 min in series [1] is under 0.1 µg/mL. The EC50 on human wild type-CFTR [2] and on human wild type-CFTR [3] was under 200 nM each time.
